Assay results from paper PMC10606924, “Interactions of Nucleosomes with Acidic Patch-Binding Peptides: A Combined Structural Bioinformatics, Molecular Modeling, Fluorescence Polarization, and Single-Molecule FRET Study” (International Journal of Molecular Sciences, 2023).
Entries after “also recorded” stand apart in the source; their conditions may differ.

Columns and labels:
[1] = system: Cy3/Cy5-labeled mononucleosomes (603 DNA, 147 bp); assay: Single-molecule FRET (spFRET) of nucleosome-peptide interactions; type: biochemical, H. sapiens; settings: 10 μM peptide
Excerpt: Non-fluorescently labeled nuclesomal DNA fragments were obtained as follows. pUC57 plasmids containing eight repeats of the high-affinity 147 bp Widom 603 sequence were amplified in E. coli XL-10 stain and purified via alkaline lysis (see details in Supplementary Materials and Methods). The Widom 603 fragments were released via cleavage with EcoRV and separated from parent plasmid with polyethylene glycol precipitation in order to clear the vector backbone as described in [86]. Nucleosomal DNA fragments fluorescently labeled at the 35 and 112 bp positions were obtained following established protocols. […]
NCPs were reconstituted by mixing 147 bp Widom 603 DNA and histone octamers at a 1:1.15 molar ratio. […] Fluorescently labeled nucleosomes were detected by in-gel FRET using a Typhoon scanner (GE Healthcare, Chicago, IL, USA) with excitation at 532 nm laser and emission at 670 nm (FRET between Cy3 and Cy5) or 580 nm (Cy3 signal) (Supplementary Figure S5).
Single-particle FRET measurements were conducted with LSM710-Confocor3 laser scanning confocal microscope (Carl Zeiss, Jena, Germany) as described previously. […] To evaluate the level of background signal and reveal fluorescence bursts, spFRET data were analyzed using the FretBursts version 0.7.1 software. […]

[2] = molecular target: nucleosome (H. sapiens canonical histone octamer on 147 bp Widom 603 DNA) (H. sapiens) (UniProt P04908); assay: fluorescence polarisation; 100 nM FAM-LANA_(1-22) as tracer, nucleosome concentration varied by two-fold serial dilution, 30 min at +4 C; 10 mM TrisHCl pH 8.0, 200 uM EDTA, 5 mM 2-mercaptoethanol, 10 mM NaCl; simple direct binding model with identical, non-interacting sites
[3] = system: FAM-LANA1-22 (Kaposi's sarcoma-associated herpesvirus); assay: fluorescence polarization; settings: FP: 10 mM Tris-HCl pH 8.0, 0.2 mM EDTA, 5 mM 2-mercaptoethanol, 10 mM NaCl, 30 min incubation at 4 C, EMSA: 6% PAGE, 10 mM HEPES-Na pH 8.0, 0.2 mM EDTA

Q: What does the source list for “PNVRRSNRIRLKPLEYWRGERIDYQ [CENP-Cmotif, fragment of CENP-C protein (amino acids 710–734) from R. norvegicus]”?
A: shift of EPR value distribution ([1]; 1 nM nucleosomes): shift of the EPR value distribution towards higher EPR values; also recorded: makes nucleosomes, on average, more compact; effect on average nucleosome compactness, compared with LANA1-22 ([1]; spFRET): higher than that of LANA1-22; also recorded: makes nucleosomes more compact than LANA1-22, on average

Q: With “FAM-labeled LANA_(1-22) peptide (from UniProt Q9QR71 1-22)” as the substance, how does the Kd [2] read?
A: 0.4 µM

Q: With Widom 603 nucleosome as the substance, how does the Kd [3] read?
A: 0.4 µM
